{"source": "patent US3983248A", "about": "(priority 1971, dated 1976)", "key": {"hygroscopicity": {"assay": "hygroscopicity", "type": "physicochemical", "conditions": "dihydrochloride salt", "procedure": "Following the procedure of Example 1 and using anthraquinone-2,7-disulfonylchloride, the title compound was obtained. Since the dihydrochloride was hygroscopic, it was converted to the free base by stirring it in a 10% sodium carbonate solution and recrystallized from a mixture of ether and hexane, m.p. 93°-95°."}, "[1]": {"tested_on": "virus (Vaccinia IHD, Encephalomyocarditis, Influenza Ao (PR8), Influenza A/Equine (Prague), Mengo, Semliki Forest)", "type": "in vivo, mice", "conditions": "prior art compound prepared and tested by applicants"}, "[2]": {"assay": "toxicity comparison of prior art compound with the compounds of the invention", "conditions": "prior art compound prepared and tested by applicants", "from_the_text": "The closest prior art compound known to applicants is 1,5-bis[N-(4-diethylamino- 1-methylbutyl)sulfamoyl]-anthraquinone. The preparation of this compound is disclosed in I. Kh. Fel'dman, Z. Ovsyanaya, and E. Kozlov, Tr. Leningr. Khim.-Farmatsevt. Inst. 1960 (11), 48-53; CA 59: 11312."}, "Vaccinia IHD": {"tested_on": "Vaccinia IHD", "type": "in vivo, mice", "conditions": "Vaccinia IHD 24 ID50, subcutaneous in tail; lesion scored on 7th day; subcutaneous treatment 28, 22, 4 hrs. pre- and 2, 20, 26 hrs. post-challenge; 2 to 50 mg. per kg."}}, "note": "Counter-ions that a name gives are not always drawn.", "data": [{"molecule": "CCCCN(CCCC)CCCNS(=O)(=O)c1ccc2c(c1)C(=O)c1cc(S(=O)(=O)NCCCN(CCCC)CCCC)ccc1C2=O", "note": "[Example 3 dihydrochloride]", "values": [{"measurement": "hygroscopicity", "setting": "hygroscopicity", "result": "hygroscopic"}]}, {"molecule": "CCN(CC)CCCC(C)NS(=O)(=O)c1cccc2c1C(=O)c1cccc(S(=O)(=O)NC(C)CCCN(CC)CC)c1C2=O", "note": "(stereo not shown) [1,5-bis[N-(4-diethylamino-1-methylbutyl)sulfamoyl]-anthraquinone]", "values": [{"measurement": "activity in antiviral tests used with the compounds of this invention", "setting": "[1]", "result": "inactive"}, {"measurement": "toxicity relative to the compounds of this invention", "setting": "[2]", "result": "very much more toxic than the compounds of this invention"}]}, {"molecule": "CCCCN(CCCC)CCCNS(=O)(=O)c1ccc2c(c1)C(=O)c1cc(S(=O)(=O)NCCCN(CCCC)CCCC)ccc1C2=O", "note": "[Example 6, 2,7-Bis-[N-(3-dibutylaminopropyl)sulfamoyl]-anthraquinone]", "values": [{"measurement": "antiviral activity: lesions of treated animals compared to controls", "setting": "Vaccinia IHD", "result": "fewer lesions"}]}]}
